Assay results published in patent US8841633B2, “Method and apparatus for detecting pharmaceuticals in a sample” (priority 2009, dated 2014).
Where two headings read alike, the source gives them in different places.

Key:
[1] = time-resolved fluorescence of isolated warfarin in PBS; format: physicochemical; details: excitation 334 nm
[2] = mean of three ± SEM
Protocol: The values are given as mean values of three measurements±standard error of the mean.
(§1) In connection with the retrieval of the blood sample, the patients respective International Normalized Ratio (INR) were measured, which is a well known type of measure indicative of the coagulation of the blood.

coagulation of the blood = assay: International Normalized Ratio (INR) of patients treated with warfarin; format: in vivo, human
Protocol: as §1

[3] = blood sample of patient no. 1 treated with warfarin
[4] = blood sample of patient no. 2 treated with warfarin

Compound: CC(=O)CC(c1ccccc1)c1c(O)c2ccccc2oc1=O (stereo not shown) [Warfarin, warfarin]
- excited state lifetime τ1 (unresolved) [1]: ≤ 100 ps
- Amplitude A1 [2, 3]: 69.4 ± 0.2%
- Amplitude A2 [2, 3]: 21.0 ± 0.2%
- Amplitude A3 [2, 3]: 9.6 ± 0.1%
- Fluorescence lifetime τ1 [2, 3]: 0.10 ± 0.00 ns
- Fluorescence lifetime τ2 [2, 3]: 1.50 ± 0.04 ns
- Fluorescence lifetime τ3 [2, 3]: 4.05 ± 0.01 ns
- Amplitude A1 [2, 4]: 96.0 ± 0.3%
- Amplitude A3 [2, 4]: 4.0 ± 0.3%
- Fluorescence lifetime τ1 [2, 4]: 0.06 ± 0.00 ns
- Fluorescence lifetime τ3 [2, 4]: 2.77 ± 0.02 ns
- INR value (coagulation of the blood; patient no. 1 treated with warfarin): 3.0
- INR value (coagulation of the blood; patient no. 2 treated with warfarin): 1.9
